{"source": "a melting point compilation (Tetko et al.; mined from patent text by program, amines drawn as free bases though some values may be those of a salt)"}
{"units": {"melting point": "°C"}}
{"smiles": "COc1ccc2c3c(c(=O)oc2c1)CN(CC(C)=O)CC3", "melting point": "123 to 125"}
{"smiles": "O=S(c1[nH]c(-c2ccc(Cl)cc2)c(Br)c1Br)C(F)(F)F", "note": "(configuration not stated)", "melting point": "173 to 176"}
{"smiles": "Cc1ccc(NC(=O)Nc2ccc(Oc3cc(Cl)ncn3)cc2)cc1", "melting point": "217 to 219"}
{"smiles": "CC1=CC(c2cccc(Cl)c2)C2=C(CC(C)(C)CC2=O)N1", "note": "(configuration not stated)", "melting point": "183 to 185"}
{"smiles": "Cc1cc2cc(C(=O)O)ccc2s1", "melting point": "220 to 222"}
{"smiles": "Nc1c(NC=O)c(=O)[nH]c(=O)n1Cc1ccc(Cl)cc1", "melting point": "274 to 278"}
{"smiles": "CC(C)c1ccc(S(=O)(=O)Nc2ccccc2C(=O)NCCc2ncc[nH]2)cc1", "melting point": "210 to 218"}
{"smiles": "CN(C)C(C)(C)C(N)=O", "melting point": "109 to 111"}
{"smiles": "Cc1cc(-c2c3ccccc3c(Br)c3sc(C)c(C)c23)cc(C)c1OS(=O)(=O)c1ccc(C(=O)O)c(O)c1", "melting point": "> 225"}
{"smiles": "O=CN1CCN(c2ccnc(Oc3ccccc3)n2)CC1", "melting point": "149 to 151"}
{"smiles": "OC(CCC(c1ccccc1)c1ccccc1)c1cncn1Cc1ccccc1", "note": "(configuration not stated)", "melting point": "160 to 168"}
{"smiles": "COC[C@@H](NC(C)=O)C(=O)NCc1ccc(N=[N+]=[N-])cc1", "melting point": "149 to 150"}
{"smiles": "CS(=O)(=O)Cc1cc(N)ccc1N1C(=O)c2ccc(Cl)cc2C1=O", "melting point": "228 to 230"}
{"smiles": "CCc1c(-c2ccc(OCc3ccccc3)cc2)c2cc(COCCCN(C)C)c3cccc1n32", "melting point": "63 to 65"}
{"smiles": "Cc1c(CC(=O)O)c2cc(O)ccc2n1C(=O)c1ccccc1", "melting point": "186 to 188"}
{"smiles": "O=C(CCCN1CCOCC1)c1ccc2c(c1)Cc1cc(C(=O)CCCN3CCOCC3)ccc1O2", "melting point": "110 to 112"}
{"smiles": "CC1(C)CCc2c(N3CCOCC3)nc3sc4c(NCc5cccnc5)ncnc4c3c2C1", "melting point": 249}
{"smiles": "COC(=O)COc1cc2c(c(Cl)c1Cl)C(=O)C(CC#C[Si](C)(C)C)(c1ccccc1)C2", "note": "(configuration not stated)", "melting point": "126 to 127"}
{"smiles": "CC(C)C1=CC(=O)C2=C(CCC3C(C)(C(=O)O)CCCC23C)C1=O", "note": "(configuration not stated)", "melting point": "207 to 209"}
{"smiles": "CCCCOC(=O)c1ccc(F)nc1N", "melting point": "132 to 134"}
{"smiles": "CN1CCN(c2cc(Cl)cc3c2c(=O)n(Cc2cccc(N)c2)c(=O)n3Cc2ccccc2)CC1", "melting point": "260 to 265"}
{"smiles": "O=C1Nc2ccccc2CN(c2ccccc2)N1", "melting point": "283 to 286"}
{"smiles": "Cc1cc(-c2cnn(-c3ccccc3)c2)ccc1OC=C1C=CC=CC1n1nnn(C)c1=O", "note": "(configuration not stated)", "melting point": "152 to 153"}
{"smiles": "N[C@@H](Cc1ccccc1C(F)(F)F)[C@H](O)c1ccc(F)cc1", "note": "(racemic)", "melting point": "57 to 58"}
{"smiles": "COc1cc(OC)cc(C(C)N(C)CCCOc2ccc(S(=O)(=O)c3c(C(C)C)c4ccccc4n3C)cc2)c1", "note": "(configuration not stated)", "melting point": 156}
{"smiles": "CSc1nnc(-c2ccc(Cl)cc2)o1", "melting point": "121 to 123"}
{"smiles": "CNC(=O)N(OC(=O)OC)c1ccc(Cl)c(Cl)c1", "melting point": 110}
{"smiles": "O=C(O)c1cccc(Nc2ccc(-c3ccoc3)cc2[N+](=O)[O-])c1", "melting point": "203 to 205"}
{"smiles": "Cc1nc2c(s1)-c1nc(Nc3ccccc3)ncc1CC2", "melting point": "223 to 224"}
{"smiles": "CCCC(OCCc1ccc(-c2ccc(Cl)cc2)cc1)C(=O)O", "note": "(configuration not stated)", "melting point": "89 to 90"}
{"smiles": "CS(=O)(=O)OCCCC1Oc2cc3c(cc2NC1=O)CCCC3", "note": "(configuration not stated)", "melting point": "153 to 154"}
{"smiles": "CN(C)c1c([N+](=O)[O-])c(C(C)(C)C)nn1-c1c(Cl)cc(C(F)(F)F)cc1Cl", "melting point": "81 to 83"}
{"smiles": "Cc1c(N2CCN(Cc3ccccc3)CC2)c(F)cc2c(=O)c(C(=O)O)cn(C3CC3)c12", "melting point": "209 to 211"}
{"smiles": "Cc1cc(C=O)c(OCCCCOc2c(C=O)cc(C)cc2C=O)c(C=O)c1", "melting point": 205}
{"smiles": "O=C(c1cc(=O)c2cc(O)ccc2[nH]1)N1CCC(OCc2ccccc2)CC1", "melting point": 103}
{"smiles": "Cn1nc(C(F)(F)F)cc1Oc1cc(OC(F)F)cnn1", "melting point": "86 to 88"}
{"smiles": "Nc1ncnc2c1ncn2CCCCOCP(=O)(O)O", "melting point": 67}
{"smiles": "OCCc1c[nH]c(-c2ccccc2OCc2ccccc2)n1", "melting point": "131 to 133"}
{"smiles": "COc1ccc(C2Sc3c(ccc4ccccc34)N(CCN(C)C)C(=O)C2OC(=O)c2cccnc2)cc1", "note": "(configuration not stated)", "melting point": "144 to 145"}
{"smiles": "CC1CN(C)Cc2cc(-c3ccccc3)n(Cc3ccccc3)c21", "note": "(configuration not stated)", "melting point": "90 to 91"}
{"smiles": "CCC(C)Sc1cc(C(F)(F)F)ccc1C(=O)c1cnoc1C1CC1", "note": "(configuration not stated)", "melting point": "75.6 to 76.4"}
{"smiles": "COc1ccc(CCNc2nc(N)n3nc(-c4ccco4)nc3n2)cc1", "melting point": "211 to 213"}
{"smiles": "CC(C)(C)c1cc(-c2n[nH]c3ncccc23)cc(C(C)(C)C)c1O", "melting point": "216 to 217"}
{"smiles": "COc1ccc2c(c1)CCC(Cc1ccccc1)C2=O", "note": "(configuration not stated)", "melting point": "50 to 51"}
{"smiles": "O=C1CN2CCCC1C2", "note": "(configuration not stated)", "melting point": "83 to 87"}
{"smiles": "COc1ccc(Cl)cc1C(=O)NC1Cc2cc(S(=O)(=O)NC(=S)NC(C)C)c(OC)cc2OC1(C)C", "note": "(configuration not stated)", "melting point": "201 to 202"}
{"smiles": "O=C(NCc1ccccc1Cl)c1cccnc1OCc1cccnc1", "melting point": "91 to 93"}
{"smiles": "COCCOc1ccc(COC(=O)NS(=O)(=O)c2ccc(Cl)cc2)c(Oc2ncc(C(F)(F)F)cc2Cl)c1", "melting point": "112 to 115"}
{"smiles": "CCc1nn(C2CCCC2)c(N)c1C#N", "melting point": "171 to 173"}
{"smiles": "COc1cc(C(=O)Cc2nnnn2C)c(N)cc1Cl", "melting point": "178 to 181"}
{"smiles": "c1ccc(Oc2ccc(N3CCNCC3)nc2)cc1", "melting point": "80.5 to 83"}
{"smiles": "CC1Cc2nc(-c3ccccc3)[nH]c(=O)c2CC1S(=O)(=O)c1ccccc1", "note": "(configuration not stated)", "melting point": 247}
{"smiles": "Cc1cc(C)nc(NC(=O)Cc2ccsc2Br)c1", "melting point": 72}
{"smiles": "CSc1ncc(F)c(N)n1", "melting point": "114 to 115"}
{"smiles": "OCC(O)c1cccc(OCc2ccc3ccccc3c2)c1", "note": "(configuration not stated)", "melting point": "121 to 122"}
{"smiles": "Cn1c(=O)c2c(ncn2CCCCCC#N)n(C)c1=O", "melting point": "86 to 88"}
{"smiles": "Cn1c2ccccc2c2nc3cccc(CO)c3nc21", "melting point": 201}
{"smiles": "N#CC(Cc1ccc(-c2ccccc2)cc1)C(=O)N=NO", "note": "(configuration not stated)", "melting point": 172}
{"smiles": "CSCCNC(=O)c1cccc(-c2cccc3cc(Cc4cccc(C(F)(F)F)c4)oc23)c1", "melting point": "135 to 138"}
{"smiles": "O=C(O)Cc1ccc(CNC(=O)C2Cc3ccccc3N2S(=O)(=O)c2ccc(-c3cccc(Cl)c3)cc2)cc1", "note": "(configuration not stated)", "melting point": 120}
{"smiles": "Nc1nc(OCC2CCCCC2)c2c(n1)=NC(=O)N=2", "melting point": 297}
{"smiles": "C=CCOc1cc2c(cc1C=CC)N(CC=C(C)C)C(=O)CC2", "melting point": "87 to 88"}
{"smiles": "Nc1nc(N)c(C(=O)N=CNNC(=O)n2ccnc2)nc1F", "melting point": "227 to 230"}
{"smiles": "CN(C)C(=O)C1(c2ccccc2)CCNCC1", "melting point": 95}
{"smiles": "CNC(=O)C(=O)c1ccccc1COc1cc(C)ccc1C", "melting point": "129 to 130"}
{"smiles": "COc1ccc(CCC(C)=O)cc1S(N)(=O)=O", "melting point": "176 to 179"}
{"smiles": "Cn1cc2c(C3C(=O)Nc4ccc(Br)cc43)nc(NCCc3cccnc3)nc2n1", "note": "(configuration not stated)", "melting point": "314 to 317"}
{"smiles": "CC[C@]12CC[C@@H]3c4ccc(O)cc4CC[C@H]3[C@@H]1C=CC2=O", "melting point": 230}
{"smiles": "CCC(=O)N(C)N1CC(C)(C)C(=O)c2ccc(S(=O)(=O)c3ccccc3)cc21", "melting point": "153 to 155"}
{"smiles": "COC(=O)NC1=NCC(c2ccccc2)CN1C", "note": "(configuration not stated)", "melting point": "176 to 177"}
{"smiles": "CCC(C(=O)O)(c1ccc(OCc2ccc3ccccc3n2)cc1)c1ccc(OCc2ccc3ccccc3n2)cc1", "melting point": "83 to 92"}
{"smiles": "CCOc1ccc(-c2nc(-c3ccc(OC(C)=O)c(C(=O)O)c3)cs2)cc1OCC", "melting point": "178 to 179"}
{"smiles": "O=C(O)c1ccnc(NC(=O)C(Cc2ccccc2)NP(=O)(O)O)c1", "note": "(configuration not stated)", "melting point": "135 to 137"}
{"smiles": "NC(=O)c1[nH]c2cccnc2c1Sc1cccc(F)c1", "melting point": "235 to 237"}
{"smiles": "CCNc1cccc2c(S(=O)(=O)Nc3ccc(Cl)nn3)cccc12", "melting point": "166 to 168"}
{"smiles": "COc1cccc2c(N3CCNCC3)cc(C(F)(F)F)nc12", "melting point": 130}
{"smiles": "CCOC(=O)c1cn2c(cc(Cl)c3ccc(Br)cc32)n1", "melting point": "206 to 207"}
{"smiles": "CCCC=Cc1c(CC)nc(CC)c(CO)c1-c1ccccc1", "melting point": "74 to 76"}
{"smiles": "COc1ccc(Nc2ccc(OC)c3ccccc23)cc1C(=O)O", "melting point": "153 to 154"}
{"smiles": "Clc1ccc(-c2nnc(NCCN3CCCCC3)c(Cc3ccccc3)n2)cc1", "melting point": 196}
{"smiles": "CC12CCC3C(CCC4=CC(=O)CCC43C=O)C1CCC2=O", "note": "(configuration not stated)", "melting point": "126 to 129"}
{"smiles": "CCOC(=O)Cc1nc(-c2ccc(Cl)cc2)oc1OCC", "melting point": "144 to 146"}
{"smiles": "O=C(O)CCCCCCCCCC=Cc1ccco1", "melting point": "38 to 39"}
{"smiles": "CCOC(=O)c1cc(=O)c(Oc2ccc(OC)cc2)co1", "melting point": "106 to 107"}
{"smiles": "O=c1c(=NNc2ccccc2)c(=O)n(-c2ccccc2)c2ccccc2n1CCC1C2CC3CC(C2)CC1C3", "note": "(configuration not stated)", "melting point": "130 to 131"}
{"smiles": "CCN1C(=O)CN=C(c2ccccc2F)c2cc(C(C)=O)ccc21", "melting point": "154 to 156"}
{"smiles": "COc1ccc(-c2nc([N+](=O)[O-])n(C(=O)c3ccccc3)c2-c2ccc(OC)cc2)cc1", "melting point": "161 to 163"}
{"smiles": "O=c1c2cc(F)c(N3CCCC3)cc2n(-c2ccc(F)cc2F)c(=O)n1O", "melting point": "232 to 234"}
{"smiles": "O=CNc1ccc2c(c1)C(=O)CCC2", "melting point": "137 to 138"}
{"smiles": "OC(CCSc1cccc2ccccc12)CCc1cccnc1", "note": "(configuration not stated)", "melting point": "58 to 59"}
{"smiles": "CCCCOc1ccc(S(=O)(=O)N2CCN(C)CC2)cc1-c1nc2cc3nc[nH]c3cc2c(=O)[nH]1", "melting point": "124 to 126"}
{"smiles": "COC(c1ccc(NC(=O)c2c(C)nn(C)c2C)c(C(C)CC(C)C)c1)(C(F)(F)F)C(F)(F)F", "note": "(configuration not stated)", "melting point": "94 to 96"}
{"smiles": "Nc1ccc2c(c1)CC(CC(=O)O)C2=O", "note": "(configuration not stated)", "melting point": "192 to 194"}
{"smiles": "Cc1c(C(=O)CC(C)C)cc2c(c1C)OC(C(=O)O)C2", "note": "(configuration not stated)", "melting point": 117}
{"smiles": "O=C1COCCCOC(=O)COCCCO1", "melting point": "135 to 136"}
{"smiles": "CC1Sc2nc(SCc3ccccc3)nn2C1=O", "note": "(configuration not stated)", "melting point": "85 to 87"}
{"smiles": "COc1cc(C=O)ccc1OCc1nc(N2CCOCC2)sc1C", "melting point": "127 to 128"}
{"smiles": "COc1ccc2c(c1)CC(CC#N)C2=O", "note": "(configuration not stated)", "melting point": "117 to 120"}
{"smiles": "CCCCOc1ccccc1C(=O)C=Cc1cc(OC)cc(OC)c1", "melting point": "69.5 to 70.1"}
{"smiles": "CC(C)C(NC(=O)CCc1cccnc1)C(=O)NC(Cc1ccccc1)C(O)C(O)C(Cc1ccccc1)NC(=O)C(NC(=O)CCc1cccnc1)C(C)C", "note": "(configuration not stated)", "melting point": "260 to 263"}
{"smiles": "Cc1ccc(N)c(C)c1CO", "melting point": 85}
{"smiles": "CC(=O)NC[C@H]1CN(c2ccc(N3CCC4(CC3)CO4)c(F)c2)C(=O)O1", "melting point": "152 to 154"}
